Test results as given in US20220041641A1, “QUATERNARY AMMONIUM SALTS AS INHIBITORS OF TRIMETHYLAMINE PRODUCTION” (Senda Biosciences, Inc., priority 2018, published 2022).
Counter-ions that a name gives are not always drawn. Like-named read-outs stand apart in the source and are kept apart here.

Molecular target: CutC from Proteus mirabilis (Proteus mirabilis, UniProt B4EYG1)
Assay: Cell-based assay for TMA production from a native producer (P. mirabilis)
From the text: In each bacterium, CutC was modified into its activated form by a cognate activating enzyme, CutD (protein EDU36696.1 for C. sporogenes; protein WP_004249185.1 for P. mirabilis). […] Trimethylamine may subsequently be converted by human enzymes such as flavin monooxygenase 3 to trimethylamine N-oxide, which might be associated with negative health consequences in humans.
A compound's ability to inhibit CutC from Proteus mirabilis and C. sporogenes from converting choline into trimethylamine was tested in cells as described. A BHI blood plate was inoculated with a frozen stock of Proteus mirabilis or Clostridium sporogenes under anaerobic conditions. A single colony was isolated from the plate and inoculated into 5 mL BHI supplemented with 1 mM choline under anaerobic conditions. The liquid cultures were grown overnight at 37° C.
To prepare each sample, 300 μL of the saturated culture was then inoculated into a 30 mL dilution blank under anaerobic conditions. 1 mM (trimethyl-d9)-choline and a sufficient amount of a compound to obtain a final concentration of 10 μM were added to the inoculated dilution blank. […] The mixture was incubated at 37° C. for 5 h. […] After centrifugation, the samples were analyzed by LCMS to determine the amount of d9-TMA produced.

[1] = d9-TMA from 1 mM d9-choline, 5 h, 37° C.; value 10 given when no fit or % TMA remaining at 10 μM higher than 15%; read-out: Average IC50 Whole cell P. mirabilis
[2] = read-out: Average IC50 Whole cell P. mirabilis; d9-TMA from 1 mM d9-choline, 5 h, 37° C.; value 10 given when no fit or % TMA remaining at 10 μM higher than 15%

Chain of CutC from Proteus mirabilis (B4EYG1 entry or part of it): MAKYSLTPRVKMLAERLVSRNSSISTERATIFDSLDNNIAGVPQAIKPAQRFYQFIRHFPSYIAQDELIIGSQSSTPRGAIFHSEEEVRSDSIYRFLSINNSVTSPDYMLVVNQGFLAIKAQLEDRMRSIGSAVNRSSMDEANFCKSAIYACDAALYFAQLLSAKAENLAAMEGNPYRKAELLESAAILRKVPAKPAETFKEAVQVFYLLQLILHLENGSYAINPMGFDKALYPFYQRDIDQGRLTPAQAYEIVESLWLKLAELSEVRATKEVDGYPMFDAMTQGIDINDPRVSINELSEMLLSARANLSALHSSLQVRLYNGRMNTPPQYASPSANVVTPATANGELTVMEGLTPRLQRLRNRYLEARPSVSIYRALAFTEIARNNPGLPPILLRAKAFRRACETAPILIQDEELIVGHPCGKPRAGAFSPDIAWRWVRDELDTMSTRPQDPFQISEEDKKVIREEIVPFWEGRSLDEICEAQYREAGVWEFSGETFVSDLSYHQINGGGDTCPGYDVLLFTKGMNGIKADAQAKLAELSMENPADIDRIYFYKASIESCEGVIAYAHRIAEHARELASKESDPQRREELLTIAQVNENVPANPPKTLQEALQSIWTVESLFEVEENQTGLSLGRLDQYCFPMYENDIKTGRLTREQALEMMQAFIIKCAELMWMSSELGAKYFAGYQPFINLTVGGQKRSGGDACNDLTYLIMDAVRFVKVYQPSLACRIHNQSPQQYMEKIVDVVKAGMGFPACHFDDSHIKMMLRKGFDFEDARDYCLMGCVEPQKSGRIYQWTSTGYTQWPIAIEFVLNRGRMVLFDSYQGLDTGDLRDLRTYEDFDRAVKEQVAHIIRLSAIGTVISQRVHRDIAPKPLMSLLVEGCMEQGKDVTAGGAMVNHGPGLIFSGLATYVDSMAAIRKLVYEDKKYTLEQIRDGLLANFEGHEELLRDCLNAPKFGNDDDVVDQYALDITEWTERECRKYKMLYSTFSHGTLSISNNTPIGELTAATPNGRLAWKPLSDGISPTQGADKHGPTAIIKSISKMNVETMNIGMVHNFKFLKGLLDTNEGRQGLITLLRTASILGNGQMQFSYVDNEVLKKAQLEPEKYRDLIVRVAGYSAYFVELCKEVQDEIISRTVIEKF
Chain of CutC from Proteus mirabilis (B4EYG0 entry or part of it, further chain): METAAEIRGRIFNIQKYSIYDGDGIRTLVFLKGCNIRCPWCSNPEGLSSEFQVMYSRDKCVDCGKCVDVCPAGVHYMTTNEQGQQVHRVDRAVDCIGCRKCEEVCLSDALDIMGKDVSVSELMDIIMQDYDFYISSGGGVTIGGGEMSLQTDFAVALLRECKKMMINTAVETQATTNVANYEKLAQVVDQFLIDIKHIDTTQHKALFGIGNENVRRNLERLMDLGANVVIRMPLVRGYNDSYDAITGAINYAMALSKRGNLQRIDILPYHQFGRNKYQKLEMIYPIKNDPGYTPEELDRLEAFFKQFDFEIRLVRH

Structure (SMILES) | IC50 [1] [µM] | IC50 [2] [µM]
COC[N+](C)(C)CCO [Compound 212, (2-hydroxyethyl)(methoxymethyl)dimethylazanium trifluoroacetate] | 1.99 | –
C[N+](C)(CCO)C(F)F [Compound 193, (difluoromethyl)(2-hydroxyethyl)dimethylazanium] | 1.38 | –
C#CC[N+]1(CF)CC[C@@H](O)C1 (stereo partly drawn) [Compound 214, (3R)-1-(fluoromethyl)-3-hydroxy-1-(prop-2-yn-1-yl)pyrrolidin-1-ium] | 3.87 | –
C#CC[N+](C)(C)CCNC(=O)OC(C)(C)C [Compound 192, tert-butyl N-{2-[dimethyl(prop-2-yn-1-yl)azaniumyl]ethyl}carbamate Bromide] | > 10 | –
C#CC[N+](C)(C)C[C@@H](C)C(=O)O [Compound 162, (R)—N-(2-carboxypropyl)-N,N-dimethylprop-2-yn-1-aminium Chloride] | 0.29 | –
C#CC[N+](C)(C)CC=C [Compound 211, N,N-dimethyl-N-(prop-2-yn-1-yl)prop-2-en-1-aminium 2,2,2-trifluoroacetate] | 0.211 | –
C#CC[N+]1(CCO)CCCCC1 [Compound 154, 1-(2-hydroxyethyl)-1-(prop-2-yn-1-yl)piperidin-1-ium Bromide] | ≥ 10 | –
C[N+]1(C)CCOCC1CO (stereo not drawn) [Compound 220, 3-(hydroxymethyl)-4,4-dimethylmorpholin-4-ium] | > 10 | –
C#CC[N+]1(CF)CCCCC1 [Compound 164, 1-(fluoromethyl)-1-(prop-2-yn-1-yl)piperidin-1-ium Iodide] | ≥ 10 | –
C#CC[N+](C)(C)CF [Compound 179, (fluoromethyl)dimethyl(prop-2-yn-1-yl)azanium Iodide] | 0.11 | –
C#CC[N+](C)(C)CC(=O)NS(C)(=O)=O [Compound 216, [(methanesulfonylcarbamoyl)methyl]dimethyl(prop-2-yn-1-yl)azanium] | > 10 | –
C[N+](C)(CCO)CC1COC1 [Compound 184, (2-hydroxyethyl)dimethyl[(oxetan-3-yl)methyl]azanium Bromide] | > 10 | –
C#CC[N+](C)(C)CC#N [Compound 168, (cyanomethyl)dimethyl(prop-2-yn-1-yl)azanium Bromide] | 0.87 | –
C#CC[N+](C)(C)CC(=O)O[C@H]1CO[C@H]2[C@@H]1OC[C@H]2OC(=O)C[N+](C)(C)CC#C [Compound 69, N,N′-((((3R,3aR,6S,6aR)-hexahydrofuro[3,2-b]furan-3,6-diyl)bis(oxy))bis(2-oxoethane-2,1-diyl))bis(N,N-dimethylprop-2-yn-1-aminium) bistrifluoroacetate] | ≥ 10 | –
C#CC[N+](C)(C)CCP(=O)(O)O [Compound 210, {2-[dimethyl(prop-2-yn-1-yl)azaniumyl]ethyl}phosphonic Acid] | – | > 10
C[N+](C)(C)CCCl [Compound 180] | – | > 10
C[N+](C)(CCO)C1CCC1 [Compound 199, N-(2-hydroxyethyl)-N,N-dimethylcyclobutanaminium] | > 10 | –
C#CC[N+](C)(C)CC [Compound 206, ethyldimethyl(prop-2-yn-1-yl)azanium Iodide] | 0.069 | –
C=C(C[N+](C)(C)CC(=C)C(=O)O)C(=O)O [Compound 156, 2-carboxy-N-(2-carboxyallyl)-N,N-dimethylprop-2-en-1-aminium Bromide] | ≥ 10 | –
C#CC[N+](C)(C)CC(=C)Br [Compound 217, (2-bromoprop-2-en-1-yl)dimethyl(prop-2-yn-1-yl)azanium] | 0.771 | –
C[N+]1(C)CCOC(O)(C(F)(F)F)C1 (stereo not drawn) [Compound 218, 2-hydroxy-4,4-dimethyl-2-(trifluoromethyl)morpholin-4-ium trifluoroacetate] | > 10 | –
C[N+]1(CF)CCCC[C@@H]1CO (stereo partly drawn) [Compound 161, (2R)-1-(fluoromethyl)-2-(hydroxymethyl)-1-methylpiperidin-1-ium Iodide] | ≥ 10 | –
C#CC1CCC[N+]1(C)C (stereo not drawn) [Compound 226] | 0.244 | –
C#CC[C@@H](C(=O)O)[N+](C)(C)C [Compound 152, (S)-1-carboxy-N,N,N-trimethylbut-3-yn-1-aminium Iodide] | ≥ 10 | –
C#CC[N+]1(CC(=O)O)CCCCC1 [Compound 160, 1-(carboxymethyl)-1-(prop-2-yn-1-yl)piperidin-1-ium bromide] | ≥ 10 | –
C#CC[N+](C)(C)CC(C)=O [Compound 197, dimethyl(2-oxopropyl)(prop-2-yn-1-yl)azanium Bromide] | 4.97 | –
C=C(C[N+](C)(C)C)C(=O)O [Compound 155, 2-carboxy-N,N,N-trimethylprop-2-en-1-aminium Bromide] | 2.58 | –

Structure (SMILES) | IC50 [1] [µM] | IC50 [2] [µM]
CCC[N+](C)(CF)CCO (stereo not drawn) [Compound 225] | 0.629 | –
COCC[N+](C)(C)CF [Compound 228, (fluoromethyl)(2-methoxyethyl)dimethylazanium Iodide] | > 10 | –
C#CC[N+](C)(C)Cc1nnn[nH]1 [Compound 177, dimethyl(prop-2-yn-1-yl)[(1H-1,2,3,4-tetrazol-5-yl)methyl]azanium] | 7.57 | –
C#CC[N+](C)(C)CC(=C)F [Compound 209, 2-fluoro-N,N-dimethyl-N-(prop-2-yn-1-yl)prop-2-en-1-aminium 2,2,2-trifluoroacetate] | 6.8 | –
C[N+](C)(CCO)Cc1ccccc1 [Compound 173, benzyl(2-hydroxyethyl)dimethylazanium] | ≥ 10 | –
C=CC[N+](C)(C)CCO [Compound 182, (2-hydroxyethyl)dimethyl(prop-2-en-1-yl)azanium Bromide] | 3.15 | –
C[N+](C)(CCO)C1COC1 [Compound 219, N-(2-hydroxyethyl)-N,N-dimethyloxetan-3-aminium trifluoroacetate] | > 10 | –
C[N+](C)(CCO)CC1CCC1 [Compound 194, (cyclobutylmethyl)(2-hydroxyethyl)dimethylazanium Bromide] | > 10 | –
C#CC[N+](C)(C)CCP(=O)(OCC)OCC [Compound 202, diethyl {2-[dimethyl(prop-2-yn-1-yl)azaniumyl]ethyl}phosphonate Bromide] | – | 0.242
C#CC[N+](C)(C)CC1(C(=O)OC)CC1 [Compound 190, N-((1-(methoxycarbonyl)cyclopropyl)methyl)-N,N-dimethylprop-2-yn-1-aminium Bromide] | 1.28 | –
C#CC[N+](C)(CF)CCO (stereo not drawn) [Compound 153, N-(fluoromethyl)-N-(2-hydroxyethyl)-N-methylprop-2-yn-1-aminium Iodide] | 0.02 | –
C#CC[N+](C)(C)CC[PH](=O)O [Compound 227, {2-[dimethyl(prop-2-yn-1-yl)azaniumyl]ethyl}phosphinic Acid] | – | > 10
C#CC[N+]1(CC#C)CC[C@@H](O)C1 [Compound 200, (3R)-3-hydroxy-1,1-bis(prop-2-yn-1-yl)pyrrolidin-1-ium] | 2.74 | –
C[N+]12CCC(O)(CC1)CC2 [Compound 149, 4-hydroxy-1-methylquinuclidin-1-ium] | ≥ 10 | –
C[N+](C)(CCO)CCO [Compound 157, 2-hydroxy-N-(2-hydroxyethyl)-N,N-dimethylethan-1-aminium Iodide] | ≥ 10 | –
C#CC[N+]1(CC#C)CCCC1 [Compound 188, 1,1-bis(prop-2-yn-1-yl)pyrrolidin-1-ium Bromidebromide] | > 10 | –
C[N+](C)(CCO)CCCl [Compound 198, (2-chloroethyl)(2-hydroxyethyl)dimethylazanium Iodide] | – | > 10
CC[N+](C)(CF)CCO (stereo not drawn) [Compound 213, ethyl(fluoromethyl)(2-hydroxyethyl)(methyl)azanium Iodide] | 0.18 | –
C#CC[N+](C)(C)CCCB(O)O [Compound 222, {3-[dimethyl(prop-2-yn-1-yl)azaniumyl]propyl}boronic Acid] | > 10 | –
C#CC[N+](C)(C)CC1OC1C (stereo not drawn) [Compound 181, dimethyl[(3-methyloxiran-2-yl)methyl](prop-2-yn-1-yl)azanium] | > 10 | –
C#CC[N+]1(CF)CCC[C@H]1CO (stereo partly drawn) [Compound 205, (2S)-1-(fluoromethyl)-2-(hydroxymethyl)-1-(prop-2-yn-1-yl)pyrrolidin-1-ium Iodide] | 8.3 | –
C=C(C[N+](C)(C)CF)C(=O)O [Compound 171, (2-carboxy-2-methylideneethyl)(fluoromethyl)dimethylazanium Iodide] | ≥ 10 | –
C#CC[N+](C)(CC#C)CCS(=O)(=O)O [Compound 223, methylbis(prop-2-yn-1-yl)(2-sulfoethyl)azanium] | 2.28 | –
C#CC[N+]1(CF)CCCC1 [Compound 187, 1-(fluoromethyl)-1-(prop-2-yn-1-yl)pyrrolidin-1-ium] | 0.763 | –
C#CC[N+](C)(C)CCS(=O)(=O)O [Compound 221, dimethyl(prop-2-yn-1-yl)(2-sulfoethyl)azanium Trifluoroacetate] | > 10 | –
C#CC[N+](C)(C)C[C@@H](C)C(=O)OC [Compound 174, [(2R)-3-methoxy-2-methyl-3-oxopropyl]dimethyl(prop-2-yn-1-yl)azanium] | 0.17 | –
C#CC[N+](C)(C)CCC [Compound 204, dimethyl(prop-2-yn-1-yl)propylazanium Iodide] | 0.66 | –
